The source of these data is ChEMBL document CHEMBL1201862, “PubChem BioAssay data set” (2004).

Some test systems named below: UACC-62; SNB-19; A498; SK-MEL-28; UO-31; HL-60; MCF7; U-251; MDA-N; K562; HCT-15; IGROV-1; OVCAR-3; LOX IMVI; A549; COLO 205; TK-10; Hs-578T; SW-620; Malme-3M.
Common to all, as to test: NCI tumour cell line growth inhibition, 48 h

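Each compound was tested at five concentrations against cells in 96-well plates for 48 hours. GI50 = concentration required for 50% inhibition of growth.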 Calls of active or inactive are those of the source. Rule as the data show it: active = GI50 up to about 1.1 µM and inactive = higher. Some results are limits rather than exact numbers.

For `CCOC(=O)c1cc2c(ccc3cc(C(=O)OCC)[nH]c32)[nH]1`, the GI50 was 45.9 µM (inactive) in the test on UACC-62; 25.4 µM (inactive) in the test on SNB-19; 52 µM (inactive) with A498; 8.36 µM (inactive) with SK-MEL-28; 48.6 µM (inactive) in the test with UO-31; > 10 µM (inactive) in the test with HL-60. In addition, the GI50 was 50.2 µM (inactive) in the test with MCF7; 6.15 µM (inactive) in the test on U-251; 51.5 µM (inactive) in the test on MDA-N; 97.1 µM (inactive) with K562; 33.3 µM in the test with HCT-15; 53.7 µM (inactive) in the test with IGROV-1. Moreover, the GI50 was 87.1 µM (inactive) in the test with OVCAR-3; 25.6 µM (inactive) in the test on LOX IMVI; 29.7 µM (inactive) in the test with A549; 65.3 µM (inactive) in the test on COLO 205; 50.2 µM (inactive) in the test on TK-10; 17.2 µM (inactive) with Hs-578T. Further, the GI50 is 25.8 µM (inactive) in the test with SW-620 and 43.3 µM (inactive) in the test on Malme-3M.
Take `NC(=O)N/N=C1/CCC(O)CC1CC(=O)O` (stereo not given): the GI50 was > 100 µM (inactive) in the test on UACC-62; > 100 µM (inactive) in the test on SNB-19; > 100 µM (inactive) in the test with A498; > 100 µM (inactive) with SK-MEL-28; > 100 µM (inactive) with UO-31; 2.7 µM (inactive) in the test on HL-60. The GI50 in the test with MCF7 was > 100 µM (inactive); in the test with U-251 it was > 100 µM (inactive); with MDA-N, > 100 µM (inactive); in the test on K562, > 100 µM (inactive); in the test with HCT-15, over 100 µM; in the test on IGROV-1, > 100 µM (inactive). Besides, the GI50 in the test on OVCAR-3, with LOX IMVI, in the test with A549, in the test with COLO 205, with TK-10 and in the test with Hs-578T was > 100 µM (inactive) throughout. The GI50 with SW-620 and in the test with Malme-3M was > 100 µM (inactive) throughout.
Consider `C/C(=C/CO[Si](C)(C)C(C)(C)C)C(=O)N(C)c1ccccc1I`, for which the GI50 in the test on UACC-62 was 14.8 µM (inactive); in the test on SNB-19 it was 16.6 µM (inactive); in the test on A498 it was 17.3 µM (inactive); with SK-MEL-28, 17.9 µM (inactive); with UO-31 it was 14.8 µM (inactive); in the test with HL-60 it was 12.2 µM (inactive). The GI50 with MCF7 is 16.9 µM (inactive); in the test on U-251, 15.3 µM (inactive); in the test with MDA-N, 17.7 µM (inactive); in the test with K562, 19.8 µM (inactive); in the test with HCT-15 it was 18.6 µM; in the test on IGROV-1 it was 16 µM (inactive). For the same molecule, the GI50 is 15.9 µM (inactive) in the test with OVCAR-3; 17.3 µM (inactive) in the test with LOX IMVI; 16.6 µM (inactive) in the test on A549; 18.5 µM (inactive) in the test with COLO 205; 18.7 µM (inactive) in the test with TK-10; 18.2 µM (inactive) in the test with Hs-578T. Also, the figures for the GI50 in the test on SW-620 and in the test with Malme-3M were 17.6 µM (inactive) and 14.3 µM (inactive), respectively.
Take `CCC1(C(=O)OC(C)(C)C)OC12C(C)CCCC2C` (stereo not given): the GI50 in the test with UACC-62 was 50.4 µM (inactive); with SNB-19 it was 48.9 µM (inactive); in the test with A498 it was 57.9 µM (inactive); in the test with SK-MEL-28, > 100 µM (inactive); in the test with UO-31 it was 48.5 µM (inactive); in the test with HL-60, 17.8 µM (inactive). Also, the GI50 in the test on MCF7 is 24.3 µM (inactive); in the test with U-251 it was 42.9 µM (inactive); with MDA-N, 56.8 µM (inactive); with K562, 21.8 µM (inactive); in the test with HCT-15 it was 36 µM; in the test on IGROV-1 it was > 100 µM (inactive). Moreover, the GI50 in the test with OVCAR-3 was 34.3 µM (inactive); with LOX IMVI it was 32.1 µM (inactive); in the test with A549, 34.8 µM (inactive); in the test on COLO 205, 23.9 µM (inactive); in the test on TK-10, 41.3 µM (inactive); in the test on Hs-578T, 90.2 µM (inactive). Moreover, the GI50 in the test with SW-620 was 29.5 µM (inactive); in the test on Malme-3M, 56.2 µM (inactive).
`CSC(=S)OC1CC(n2cnc3c(NC(=O)c4ccccc4)ncnc32)OC1CO[Si](C)(C)C(C)(C)C` (stereo not given): the GI50 is 14.1 µM (inactive) with UACC-62; 36.7 µM (inactive) in the test with SNB-19; 19.1 µM (inactive) in the test on A498; 33.3 µM (inactive) with SK-MEL-28; 4.4 µM (inactive) in the test with UO-31; 2.84 µM (inactive) in the test with HL-60. The GI50 in the test on MCF7 is 8.05 µM (inactive); with U-251, 7.41 µM (inactive); in the test on MDA-N, 7.87 µM (inactive); with K562, 3.78 µM (inactive); with HCT-15 it was 13.2 µM; with IGROV-1 it was 27.2 µM (inactive). Also, the GI50 was 11 µM (inactive) with OVCAR-3; 8.55 µM (inactive) in the test with LOX IMVI; 12.4 µM (inactive) with A549; 5.85 µM (inactive) in the test on COLO 205; 35.6 µM (inactive) in the test on TK-10; 38.8 µM (inactive) in the test with Hs-578T. Besides, the GI50 in the test with SW-620 was 12.5 µM (inactive); in the test on Malme-3M it was 21.1 µM (inactive).
As for `O=C1C(c2ccc([N+](=O)[O-])cc2)=C(Cl)C(=O)c2c(O)cccc21`, the GI50 with UACC-62 is 19.7 µM (inactive); in the test on SNB-19, 22.5 µM (inactive); in the test with A498 it was 25.3 µM (inactive); in the test on SK-MEL-28 it was 18.9 µM (inactive); in the test on UO-31, 13.5 µM (inactive); with HL-60, 4.12 µM (inactive). Also, the GI50 with MCF7 was 18.8 µM (inactive); in the test with U-251, 17.9 µM (inactive); in the test on MDA-N, 20.2 µM (inactive); with K562 it was 11.4 µM (inactive); with HCT-15 it was 25.5 µM; with IGROV-1, 26.4 µM (inactive). The GI50 is 17.7 µM (inactive) with OVCAR-3; 17.3 µM (inactive) in the test with LOX IMVI; 97.7 µM (inactive) in the test on A549; 17.3 µM (inactive) with COLO 205; 20.2 µM (inactive) in the test on TK-10; 26.8 µM (inactive) in the test with Hs-578T. Moreover, the GI50 in the test on SW-620 is 4.18 µM (inactive); in the test with Malme-3M, 19.6 µM (inactive).
For `O=S(=O)(O)c1cc(/N=[N+](\[O-])c2cc(S(=O)(=O)O)c3ccccc3c2)cc2ccccc12`, the GI50 with UACC-62 is > 100 µM (inactive); with SNB-19, 46.7 µM (inactive); in the test on A498, > 100 µM (inactive); in the test on SK-MEL-28, > 100 µM (inactive); in the test with UO-31, 20.9 µM (inactive); in the test on HL-60 it was 30 µM (inactive). Further, the GI50 was 30.1 µM (inactive) with MCF7; 60.4 µM (inactive) in the test on U-251; 20 µM (inactive) in the test with MDA-N; 30.7 µM (inactive) in the test on K562; over 100 µM in the test on HCT-15; 33.9 µM (inactive) with IGROV-1. Also, the GI50 is 12.4 µM (inactive) in the test with OVCAR-3; 25.2 µM (inactive) in the test on LOX IMVI; > 100 µM (inactive) in the test on A549; > 100 µM (inactive) with COLO 205; > 100 µM (inactive) in the test on TK-10; 33.5 µM (inactive) in the test with Hs-578T. In addition, the GI50 in the test with SW-620 is 31.8 µM (inactive); in the test on Malme-3M, 45.5 µM (inactive).
